# Assay results taken from ChEMBL document CHEMBL1201862, “PubChem BioAssay data set” (2004).
#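 Interpolation was linear, between the two tested concentrations surrounding the appropriate level; five concentrations were tested over 48 hours in 96-well plates. Here, GI50 denotes the concentration required for 50% inhibition of growth.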 Calls of active or inactive are those of the source. No stated cut-off is given here; in the data, active = GI50 up to about 1.1 µM and inactive = higher.
# How the values were obtained:
# Assay in all cases: DTP human tumour cell line panel, 48 h
# LOX IMVI = test system: LOX IMVI
# 786-0 = test system: 786-0
# SF-295 = test system: SF-295
# UACC-62 = test system: UACC-62
# ACHN = test system: ACHN
# NCI/ADR-RES = test system: NCI/ADR-RES
# IGROV-1 = test system: IGROV-1
# EKVX = test system: EKVX
# HOP-92 = test system: HOP-92
# CAKI-1 = test system: CAKI-1
# SK-MEL-2 = test system: SK-MEL-2
# SF-268 = test system: SF-268
# DU-145 = test system: DU-145
# RPMI-8226 = test system: RPMI-8226
# OVCAR-5 = test system: OVCAR-5
# PC-3 = test system: PC-3
# HCC 2998 = test system: HCC 2998
# SF-539 = test system: SF-539
# SK-OV-3 = test system: SK-OV-3
# NCI-H522 = test system: NCI-H522
# MOLT-4 = test system: MOLT-4
# KM12 = test system: KM12
# SR = test system: SR
# HCT-15 = test system: HCT-15
# HT-29 = test system: HT-29
# A549 = test system: A549
# UACC-257 = test system: UACC-257
# COLO 205 = test system: COLO 205
# SN12C = test system: SN12C
# SNB-19 = test system: SNB-19
# K562 = test system: K562
# Hs-578T = test system: Hs-578T
# TK-10 = test system: TK-10
# CCRF-CEM = test system: CCRF-CEM
# UO-31 = test system: UO-31
# HCT-116 = test system: HCT-116
# Malme-3M = test system: Malme-3M
# OVCAR-4 = test system: OVCAR-4
# SW-620 = test system: SW-620
# NCI-H460 = test system: NCI-H460
# OVCAR-8 = test system: OVCAR-8
# BT-549 = test system: BT-549
# HOP-62 = test system: HOP-62
# U-251 = test system: U-251
# SNB-75 = test system: SNB-75
# NCI-H23 = test system: NCI-H23
# MDA-MB-231 = test system: MDA-MB-231
# MCF7 = test system: MCF7
# M14 = test system: M14
# HL-60 = test system: HL-60
# MDA-N = test system: MDA-N
# NCI-H226 = test system: NCI-H226
# OVCAR-3 = test system: OVCAR-3
# SK-MEL-28 = test system: SK-MEL-28
# MDA-MB-435 = test system: MDA-MB-435
# SK-MEL-5 = test system: SK-MEL-5
# A498 = test system: A498
# T47D = test system: T47D
# RXF 393 = test system: RXF 393
structure (smiles),measurement,setting,value
COc1ccccc1NCC(=O)Nn1c(C)nc2ccc(S(=O)(=O)Nc3ccccc3OC)cc2c1=O,GI50,LOX IMVI,> 100 µM (inactive)
same,GI50,786-0,> 100 µM (inactive)
same,GI50,SF-295,36.1 µM (inactive)
same,GI50,UACC-62,63.4 µM (inactive)
same,GI50,ACHN,> 100 µM (inactive)
same,GI50,NCI/ADR-RES,> 100 µM (inactive)
same,GI50,IGROV-1,42.7 µM (inactive)
same,GI50,EKVX,> 100 µM (inactive)
same,GI50,HOP-92,> 100 µM (inactive)
same,GI50,CAKI-1,> 100 µM (inactive)
same,GI50,SK-MEL-2,> 100 µM (inactive)
same,GI50,SF-268,> 100 µM (inactive)
same,GI50,DU-145,> 100 µM (inactive)
same,GI50,RPMI-8226,> 100 µM (inactive)
same,GI50,OVCAR-5,> 100 µM (inactive)
same,GI50,PC-3,88.5 µM (inactive)
same,GI50,HCC 2998,> 100 µM (inactive)
same,GI50,SF-539,> 100 µM (inactive)
same,GI50,SK-OV-3,> 100 µM (inactive)
same,GI50,NCI-H522,35.6 µM (inactive)
same,GI50,MOLT-4,> 100 µM (inactive)
same,GI50,KM12,> 100 µM (inactive)
same,GI50,SR,36.5 µM (inactive)
same,GI50,HCT-15,56.1 µM
same,GI50,HT-29,43.8 µM (inactive)
same,GI50,A549,97.5 µM (inactive)
same,GI50,UACC-257,> 100 µM (inactive)
same,GI50,COLO 205,> 100 µM (inactive)
same,GI50,SN12C,> 100 µM (inactive)
same,GI50,SNB-19,> 100 µM (inactive)
same,GI50,K562,80.4 µM (inactive)
same,GI50,Hs-578T,> 100 µM (inactive)
same,GI50,TK-10,> 100 µM (inactive)
same,GI50,CCRF-CEM,53.5 µM (inactive)
same,GI50,UO-31,> 100 µM (inactive)
same,GI50,HCT-116,> 100 µM (inactive)
same,GI50,Malme-3M,97.7 µM (inactive)
same,GI50,OVCAR-4,> 100 µM (inactive)
same,GI50,SW-620,65.2 µM (inactive)
same,GI50,NCI-H460,> 100 µM (inactive)
same,GI50,OVCAR-8,> 100 µM (inactive)
same,GI50,BT-549,> 100 µM (inactive)
same,GI50,HOP-62,> 100 µM (inactive)
same,GI50,U-251,> 100 µM (inactive)
same,GI50,SNB-75,> 100 µM (inactive)
same,GI50,NCI-H23,> 100 µM (inactive)
same,GI50,MDA-MB-231,> 100 µM (inactive)
same,GI50,MCF7,63 µM (inactive)
same,GI50,M14,> 100 µM (inactive)
same,GI50,HL-60,47.1 µM (inactive)
same,GI50,MDA-N,29.7 µM (inactive)
same,GI50,NCI-H226,> 100 µM (inactive)
same,GI50,OVCAR-3,83.4 µM (inactive)
same,GI50,SK-MEL-28,> 100 µM (inactive)
same,GI50,MDA-MB-435,26.7 µM (inactive)
Brc1ccc2c(c1)-c1nc3c(cc1CC2)CCc1ccc(Br)cc1-3,GI50,LOX IMVI,> 100 µM (inactive)
same,GI50,786-0,> 100 µM (inactive)
same,GI50,SF-295,> 100 µM (inactive)
same,GI50,ACHN,> 100 µM (inactive)
same,GI50,NCI/ADR-RES,> 100 µM (inactive)
same,GI50,IGROV-1,> 100 µM (inactive)
same,GI50,EKVX,> 100 µM (inactive)
same,GI50,HOP-92,> 100 µM (inactive)
same,GI50,CAKI-1,> 100 µM (inactive)
same,GI50,SK-MEL-2,> 100 µM (inactive)
same,GI50,SF-268,> 100 µM (inactive)
same,GI50,RPMI-8226,0.637 µM (active)
same,GI50,OVCAR-5,> 100 µM (inactive)
same,GI50,PC-3,> 100 µM (inactive)
same,GI50,HCC 2998,> 100 µM (inactive)
same,GI50,SK-OV-3,> 100 µM (inactive)
same,GI50,SK-MEL-5,> 100 µM (inactive)
same,GI50,NCI-H522,> 100 µM (inactive)
same,GI50,MOLT-4,42.4 µM (inactive)
same,GI50,KM12,> 100 µM (inactive)
same,GI50,A498,> 100 µM (inactive)
same,GI50,HCT-15,> 100 µM
same,GI50,A549,> 100 µM (inactive)
same,GI50,UACC-257,> 100 µM (inactive)
same,GI50,COLO 205,> 100 µM (inactive)
same,GI50,SN12C,> 100 µM (inactive)
same,GI50,SNB-19,> 100 µM (inactive)
same,GI50,K562,22.6 µM (inactive)
same,GI50,TK-10,> 100 µM (inactive)
same,GI50,CCRF-CEM,> 100 µM (inactive)
same,GI50,UO-31,> 100 µM (inactive)
same,GI50,HCT-116,> 100 µM (inactive)
same,GI50,T47D,> 100 µM (inactive)
same,GI50,Malme-3M,> 100 µM (inactive)
same,GI50,OVCAR-4,> 100 µM (inactive)
same,GI50,SW-620,> 100 µM (inactive)
same,GI50,NCI-H460,> 100 µM (inactive)
same,GI50,OVCAR-8,> 100 µM (inactive)
same,GI50,BT-549,> 100 µM (inactive)
same,GI50,HOP-62,> 100 µM (inactive)
same,GI50,U-251,> 100 µM (inactive)
same,GI50,SNB-75,> 100 µM (inactive)
same,GI50,NCI-H23,> 100 µM (inactive)
same,GI50,MDA-MB-231,> 100 µM (inactive)
same,GI50,MCF7,> 100 µM (inactive)
same,GI50,M14,> 100 µM (inactive)
same,GI50,MDA-N,> 100 µM (inactive)
same,GI50,NCI-H226,> 100 µM (inactive)
same,GI50,OVCAR-3,> 100 µM (inactive)
same,GI50,SK-MEL-28,> 100 µM (inactive)
same,GI50,MDA-MB-435,> 100 µM (inactive)
same,GI50,RXF 393,> 100 µM (inactive)
COc1ccn(CC(=O)c2cc3ccccc3[nH]2)c(=O)n1,GI50,LOX IMVI,> 100 µM (inactive)
same,GI50,786-0,> 100 µM (inactive)
same,GI50,SF-295,> 100 µM (inactive)
same,GI50,UACC-62,> 100 µM (inactive)
same,GI50,ACHN,> 100 µM (inactive)
same,GI50,NCI/ADR-RES,> 100 µM (inactive)
same,GI50,IGROV-1,> 100 µM (inactive)
same,GI50,EKVX,> 100 µM (inactive)
same,GI50,HOP-92,49.7 µM (inactive)
same,GI50,CAKI-1,> 100 µM (inactive)
same,GI50,SK-MEL-2,> 100 µM (inactive)
same,GI50,SF-268,> 100 µM (inactive)
same,GI50,DU-145,> 100 µM (inactive)
same,GI50,RPMI-8226,> 100 µM (inactive)
same,GI50,OVCAR-5,> 100 µM (inactive)
same,GI50,PC-3,> 100 µM (inactive)
same,GI50,HCC 2998,> 100 µM (inactive)
same,GI50,SF-539,> 100 µM (inactive)
same,GI50,SK-OV-3,> 100 µM (inactive)
same,GI50,SK-MEL-5,> 100 µM (inactive)
same,GI50,NCI-H522,> 100 µM (inactive)
same,GI50,MOLT-4,> 100 µM (inactive)
same,GI50,KM12,> 100 µM (inactive)
same,GI50,A498,> 100 µM (inactive)
same,GI50,HCT-15,> 100 µM
same,GI50,HT-29,> 100 µM (inactive)
same,GI50,A549,> 100 µM (inactive)
same,GI50,UACC-257,> 100 µM (inactive)
same,GI50,COLO 205,> 100 µM (inactive)
same,GI50,SN12C,> 100 µM (inactive)
same,GI50,SNB-19,> 100 µM (inactive)
same,GI50,K562,> 100 µM (inactive)
same,GI50,TK-10,> 100 µM (inactive)
same,GI50,CCRF-CEM,> 100 µM (inactive)
same,GI50,UO-31,> 100 µM (inactive)
same,GI50,HCT-116,> 100 µM (inactive)
same,GI50,T47D,> 100 µM (inactive)
same,GI50,Malme-3M,> 100 µM (inactive)
same,GI50,OVCAR-4,> 100 µM (inactive)
same,GI50,SW-620,> 100 µM (inactive)
same,GI50,NCI-H460,> 100 µM (inactive)
same,GI50,OVCAR-8,> 100 µM (inactive)
same,GI50,BT-549,> 100 µM (inactive)
same,GI50,HOP-62,> 100 µM (inactive)
same,GI50,U-251,> 100 µM (inactive)
same,GI50,SNB-75,> 100 µM (inactive)
same,GI50,NCI-H23,> 100 µM (inactive)
same,GI50,MDA-MB-231,> 100 µM (inactive)
same,GI50,MCF7,> 100 µM (inactive)
same,GI50,M14,> 100 µM (inactive)
same,GI50,HL-60,39.2 µM (inactive)
same,GI50,MDA-N,> 100 µM (inactive)
same,GI50,NCI-H226,> 100 µM (inactive)
same,GI50,OVCAR-3,> 100 µM (inactive)
same,GI50,SK-MEL-28,> 100 µM (inactive)
same,GI50,MDA-MB-435,> 100 µM (inactive)
same,GI50,RXF 393,> 100 µM (inactive)
